From US20210392892A1, “COMPOSITIONS COMPRISING PYRIDINE CARBOXYLATE HERBICIDES AND ACETYL COA CARBOXYLASE (ACCASE) INHIBITOR HERBICIDES” (Corteva Agriscience LLC, priority 2018, published 2021)

How the values were obtained:
Experiment in all cases: Greenhouse postemergence herbicidal effect (visual injury)
Format in all cases: in vivo
[1] = test system: BRSNW, Brassica napus (winter rape)
Source text: (§1) Seeds of the desired test plant species were planted in a 90:10% v/v (volume/volume) mixture of PRO-MIX® BX (Premier Tech Horticulture, Quakertown, Pa., USA) and PROFILE® GREENS GRADE™ (Profile Products LLC, Buffalo Grove, Ill., USA) planting mixture, which typically has a pH of 5.2 to 6.2 and an organic matter content of at least 50 percent, in plastic pots with a surface area of 103.2 square centimeters (cm^2). In some aspects, to help ensure good germination and healthy plants, a fungicide treatment and/or other chemical or physical treatment was applied. The plants were grown for 7-36 days (d) in a greenhouse with an approximate 14-hour (h) photoperiod which was maintained at about 23° C. during the day and 22° C. during the night. Nutrients and water were added on a regular basis and supplemental lighting was provided with overhead metal halide 1000-Watt lamps as necessary. The plants were employed for testing when they reached the second or third true leaf stage.
(§2) Emulsifiable concentrates of each of each pyridine carboxylate herbicide (Compound A or Compound B) were prepared at 100 grams acid equivalent per liter (g ae/L). The emulsifiable concentrates also included a safener, cloquintocet-mexyl, at 120 grams active ingredient per liter (g ai/L), unless otherwise noted below. An aliquot of each emulsifiable concentrate was placed in a 25 mL glass vial and diluted with an aqueous mixture of 1.25% (v/v) ACTIROB® B esterified rapeseed oil (Bayer Crop Science, Research Triangle Park, N.C., USA) or MSO® Concentrate with LECI-TECH® methylated soybean oil (Loveland Products, Loveland, Colo., USA) to obtain concentrated stock solutions at the highest application rate for each herbicide, based upon a 12 milliliter (mL) application volume at a rate of 187 liters per hectare (L/ha). The concentrated stock solutions were further diluted with an aqueous mixture of 1.25% v/v ACTIROB® B or MSO® Concentrate with LECI-TECH® to obtain stock solutions at reduced application rates for each herbicide. Spray solutions of the herbicide combinations (Compound A or Compound B plus ACCase inhibitor herbicide) were prepared by adding weighed amounts or aliquots of the ACCase inhibitor herbicide to the stock solutions of Compound A or Compound B to form 12-mL spray solutions in two-way combinations.
(§3) The spray solutions were applied to the plant material with an overhead Mandel track sprayer equipped with 8002E nozzles calibrated to deliver 187 L/ha over an application area of 0.503 square meters (m^2) at a spray height of 18 inches (43 centimeters (cm)) above the average plant canopy. Control plants were sprayed in the same manner with the solvent blank. All pyridine carboxylate herbicide (component a) application rates are given as “g ae/ha” and all ACCase inhibitor herbicide (component b) application rates are given as “g ai/ha.”
(§4) The treated plants and control plants were placed in a greenhouse as described above and watered by sub-irrigation to prevent wash-off of the test compounds. After 20-22 d, the condition of the test plants as compared with that of the control plants was determined visually and scored on a scale of 0 to 100 percent where 0 corresponds to no injury and 100 corresponds to complete kill.

[2] = test system: SORVU, Sorghum vulgare (grain sorghum)
Source text: as §1, §2, §3, §4

[3] = test system: IPOHE, Ipomoea hederacea (ivyleaf morningglory)
Source text: as §1, §2, §3, §4

[4] = test system: RUMOB, Rumex obtusifolius (broad-leaf dock)
Source text: as §1, §2, §3, §4

[5] = test system: LOLMG, Lolium multiflorum subsp. gaudini (annual ryegrass); conditions: with cloquintocet-mexyl
Source text: as §1, §2, §3, §4

[6] = 7.5 g ae/ha, without cloquintocet-mexyl
[7] = 10 g ae/ha, without cloquintocet-mexyl

## N#CCOC(=O)c1nc(-c2ccc3cc[nH]c3c2F)c(F)c(N)c1Cl [Compound A, cyanomethyl 4-amino-3-chloro-5-fluoro-6-(7-fluoro-1H-indol-6-yl)pyridine-2-carboxylate]
[1]; [6]
  % visual injury, Obs: 50%
[1]; [7]
  % visual injury, Obs: 65%
[1]; BRSNW, Compound A 7.5 g/ha, Fluazifop 0 g/ha
  % visual injury, Obs: 50%
[1]; BRSNW, Compound A 10 g/ha, Fluazifop 0 g/ha
  % visual injury, Obs: 65%
[2]; [6]
  % visual injury, Obs: 0%
[2]; [7]
  % visual injury, Obs: 0%
[2]; SORVU, Compound A 7.5 g/ha, Fluazifop 0 g/ha
  % visual injury, Obs: 0%
[2]; SORVU, Compound A 10 g/ha, Fluazifop 0 g/ha
  % visual injury, Obs: 0%
[3]; [6]
  % visual injury, Obs: 10%
[3]; [7]
  % visual injury, Obs: 15%
[3]; IPOHE, Compound A 7.5 g/ha, Fluazifop 0 g/ha
  % visual injury, Obs: 10%
[3]; IPOHE, Compound A 10 g/ha, Fluazifop 0 g/ha
  % visual injury, Obs: 15%
[4]; 7.5 g ae/ha, with cloquintocet-mexyl
  % visual injury, Obs: 13%
[4]; [6]
  % visual injury, Obs: 38%
[4]; 10 g ae/ha, with cloquintocet-mexyl
  % visual injury, Obs: 8%
[4]; [7]
  % visual injury, Obs: 35%
[4]; RUMOB, Compound A 7.5 g/ha, Fluazifop 0 g/ha
  % visual injury, Obs: 38%
[4]; RUMOB, Compound A 10 g/ha, Fluazifop 0 g/ha
  % visual injury, Obs: 35%
[5]; 7.5 g ae/ha
  % visual injury, Obs: 0%
[5]; 10 g ae/ha
  % visual injury, Obs: 3%
